In patent US10800741B2 (ANCUREALL PHARMACEUTICAL (SHANGHAI) CO., LTD., priority 2017, dated 2020):

Experiments:
Type in all cases: cell-based, Human
MOLM-13 (FLT3-ITD) = test: In vitro growth inhibition of MOLM-13 tumor cells (MTT/CCK8); conditions: Homo sapiens, MOLM-13; in vitro growth inhibition (or induction of apoptosis), cells cultured 3 to 5 days, MTT (CCK8); read-out: IC50 MOLM-13 (FLT3-ITD)
From the text: (§1) Tumor cell lines are an effective model for studying in vitro tumor growth inhibition. In the present invention, a representative tumor cell line was selected to determine the cell growth inhibition activity of the present compound. All cell lines used were from ATCC, DSMZ, and cell banks of the Chinese Academy of Sciences. Cell culture conditions and methods were in accordance with the requirements of each cell line. Cells were subcultured in vitro for no more than 3 generations each time, and as required, single-clone purification and identification of cell lines could be carried out.
(§2) The cell culture media used were RPMI1640 (Gibco), DMEM (Gibco), MEM (Gibco), L15 (Gibco), IMDM (Gibco), McCOY'S5A, and William's (Gibco). 5-20% fetal bovine serum (Gibco), 1% double antibiotic, 2 mM glutamine, or 1 mM sodium pyruvate were added. The names, species, major gene characteristics, culture media and cell sources of the cell lines used are shown in table 1, wherein “amp” refers to gene amplification. “+++” refers to gene overexpression. The main genetic characteristics of cells were obtained from the COSMIC Cell Lines Project and related research papers, respectively.
(§3) Adherent cells were digested with 0.25% trypsin-EDTA (Gibco). Suspension culture cells were collected by centrifugation (1700 rpm, 3 minutes). The supernatant was discarded and the cells were counted. According to each cell growth cycle, different concentrations of cells were prepared (5˜10×10^4 cells per ml), and inoculated to 96-well plates (Corning), with 100 μl per well, and incubated overnight at 37° C., 5% CO2. The next day, the test compound was added to the cultured cells (2 wells in parallel). The final concentration of the solvent was less than 1/1,000. The cells were further cultured for 3 to 5 days and assayed by MTT.
(§4) The compound was stored at a concentration of 10 mM at −20° C. and diluted to 2- or 10-fold series prior to use. BGJ398 and AC220 were synthesized according to the methods of WO2006420A1 and US2007232604A1, respectively.
(§5) The adherent cells were taken out from the cell culture medium, and immediately added to a freshly prepared complete medium containing 10% CCK8 (5% FBS), 100 ul per hole. The suspended cells were directly added to a CCK8 reagent until reaching a final concentration of 10% and cultured for 1 to 4 hours.
(§6) T=optical density of drug-treated cell wells−optical density of blank control wells; T0=optical density of cell wells before drug treatment−optical density of blank control wells; C=optical density of solvent control wells−optical density of blank control wells. […] The experiments were repeated 1 to 3 times and a statistical analysis of data was conducted.

KATO III (FGFR2 amp) = test: In vitro growth inhibition of KATO III tumor cells (MTT/CCK8); conditions: Homo sapiens, KATO III; in vitro growth inhibition (or induction of apoptosis), cells cultured 3 to 5 days, MTT (CCK8); read-out: IC50 KATO III (FGFR2 amp)
From the text: as §1, §2, §3, §4, §5, §6

H1581 (FGFR1 amp) = test: In vitro growth inhibition of H1581 tumor cells (MTT/CCK8); conditions: Homo sapiens, NCI-H1581; in vitro growth inhibition (or induction of apoptosis), cells cultured 3 to 5 days, MTT (CCK8); read-out: IC50 H1581 (FGFR1 amp)
From the text: as §1, §2, §3, §4, §5, §6

| SMILES | IC50 (MOLM-13 (FLT3-ITD)) | IC50 (KATO III (FGFR2 amp)) | IC50 (H1581 (FGFR1 amp)) |
| --- | --- | --- | --- |
| COCCOc1cc2nccc(Oc3ccc(NC(=O)Nc4cc(C(C)(C)C)n[nH]4)cc3)c2cc1NC(C)=O [Compound 116, N-[4-{4-[3-(5-tert-butyl-2H-pyrazol-3-yl)-ureido]-phenoxy}-7-(2-methoxy-ethoxy)-quinolin-6-yl]-acetamide] | 0.095 nM | 1.97 nM | 9.01 nM |
| COCCOc1cc2nccc(Oc3ccc(NC(=O)Nc4cc(C(C)(C)C)nn4C4CC4)cc3)c2cc1NC(C)=O [Compound 118] | 0.11 nM | 0.38 nM | 19.3 nM |
| COCCOc1cc2nccc(Oc3ccc(NC(=O)Nc4cc(C(C)(C)C)nn4C4CCNCC4)cc3)c2cc1NC(C)=O [Compound 120, N-[4-{4-[3-(5-tert-butyl-2-piperidin-4-yl-2H-pyrazol-3-yl)-ureido]-phenoxy}-7-(2-methoxy-ethoxy)-quinolin-6-yl]-acetamide] | 0.55 nM | 13.5 nM | 78.6 nM |
| COCCOc1cc2nccc(Oc3ccc(NC(=O)Nc4cc(C(C)(C)C)nn4C)c(Cl)c3)c2cc1NC(C)=O [Compound 124, N-[4-{4-[3-(5-tert-butyl-2-methyl-2H-pyrazol-3-yl)-ureido]-3-chloro-phenoxy}-7-(2-methoxy-ethoxy)-quinolin-6-yl]-acetamide] | 1.01 nM | 0.31 nM | 4.6 nM |
| COCCOc1cc2nccc(Oc3ccc(NC(=O)Nc4cc(C(C)(C)C)nn4C4CCN(C)CC4)c(Cl)c3)c2cc1NC(C)=O [Compound 126, N-[4-(4-{3-[5-tert-butyl-2-(1-methyl-piperidin-4-yl)-2H-pyrazol-3-yl]-ureido}-3-chloro-phenoxy)-7-(2-methoxy-ethoxy)-quinolin-6-yl]-acetamide] | 7.62 nM | 0.41 nM | 1.41 nM |
| COCCOc1cc2nccc(Oc3ccc(NC(=O)Nc4cc(C(C)(C)C)nn4CCN(C)C)c(Cl)c3)c2cc1NC(C)=O [Compound 127, N-[4-{4-[3-(5-tert-butyl-2-dimethylamino-ethyl-2H-pyrazol-3-yl)-ureido]-3-chloro-phenoxy}-7-(2-methoxy-ethoxy)-quinolin-6-yl]-acetamide] | 2.56 nM | 0.27 nM | 1.26 nM |

Further lines, results first:

| IC50 (MOLM-13 (FLT3-ITD)) | IC50 (KATO III (FGFR2 amp)) | IC50 (H1581 (FGFR1 amp)) | SMILES |
| --- | --- | --- | --- |
| 0.25 nM | 0.17 nM | 9.72 nM | COCCOc1cc2nccc(Oc3ccc(NC(=O)Nc4cc(C(C)(C)C)nn4C)cc3)c2cc1NC(C)=O [Compound 117, N-[4-{4-[3-(5-tert-butyl-2-methyl-2H-pyrazol-3-yl)-ureido]-phenoxy}-7-(2-methoxy-ethoxy)-quinolin-6-yl]-acetamide] |
| < 0.05 nM | 6.87 nM | 78.9 nM | COCCOc1cc2nccc(Oc3ccc(NC(=O)Nc4cc(C(C)(C)C)nn4CCN(C)C)cc3)c2cc1NC(C)=O [Compound 119, N-[4-(4-{3-[5-tert-butyl-2-(2-dimethylamino-ethyl)-2H-pyrazol-3-yl]-ureido}-phenoxy)-7-(2-methoxyethoxy)-quinolin-6-yl]-acetamide] |
| 0.61 nM | 0.5 nM | 19.5 nM | COCCOc1cc2nccc(Oc3ccc(NC(=O)Nc4cc(C(C)(C)C)nn4C4CCN(C)CC4)cc3)c2cc1NC(C)=O [Compound 121] |
| 0.6 nM | 0.27 nM | 69.4 nM | COCCOc1cc2nccc(Oc3ccc(NC(=O)Nc4cc(C(C)(C)C)nn4CCN4CCOCC4)cc3)c2cc1NC(C)=O [Compound 122] |
| 1.22 nM | < 0.05 nM | 9.1 nM | COCCOc1cc2nccc(Oc3ccc(NC(=O)Nc4cc(C(C)(C)C)nn4CCN4CCOCC4)c(Cl)c3)c2cc1NC(C)=O [Compound 123, N-[4-(4-{3-[5-tert-butyl-2-(2-morpholin-4-yl-ethyl)-2H-pyrazol-3-yl]-ureido}-3-chloro-phenoxy)-7-(2-methoxy-ethoxy)-quinolin-6-yl]-acetamide] |
